We go through eleven compounds from US20230295157A1, “3-(1H-IMIDAZOL-2-YL)-2,3,8,8A-TETRAHYDROINDOLIZIN-5(1H)-ONE DERIVATIVES USEFUL AS FACTOR XIA INHIBITORS” (JANSSEN PHARMACEUTICA NV, priority 2020, published 2023).

Like-named read-outs stand apart in the source and are kept apart here.

What is called IC50 is the concentration that gives 50% inhibition.

For one experiment, the target named is human plasma kallikrein (Homo sapiens (Human), UniProt P03952). The experiment can be described thus: Kallikrein inhibition assay (FLINT) utilizing a quenched AMC peptide substrate. It counts as biochemical. The note with it: 30 min preincubation, kinetic reads over 30 min, Z-Gly-Pro-Arg-AMC substrate 50 μM; read-out: Kallikrein Kin Inh IC50. How it is done:
Biological Example 2: Kallikrein Inhibition Assay Utilizing a Quenched AMC Peptide Substrate A fluorescence intensity (FLINT) based assay was used to monitor inhibition of human plasma kallikrein.
The Kallikrein FLINT assay was used with the following Z-Gly-Pro-Arg-AMC assay buffer: 50 mM Tris, pH 7.5, 100 mM NaCl, 5 mM CaCl2), 0.1 mg/mL BSA, 0.03% CHAPS. Assay buffer was prepared by mixing all ingredients fresh. 2×Z-Gly-Pro-Arg-AMC peptide substrate was prepared by diluting 10 mM stock into 1×assay buffer for a 100 μM working concentration (50 μM final concentration). The 2×kallikrein stock solution was prepared by diluting 14.76 μM stock in 1×assay buffer for a 4 nM working stock solution (2 nM final concentration).
Test compound(s) were run in an 11-point, 3-fold serial dilution with a final top compound concentration of 1 μM. Final DMSO in assay was 2%. Plasma kallikrein was pre-incubated for 30-minute with compound and then 50 μM substrate was added to initiate the reaction. The assay was run with kinetic (KIN) reads at 5 min intervals over 30 minutes. […] More specifically, the assay was run as follows: • 100 nL of 0.1 mM test compound was dispensed into black 384-well non-binding Greiner BioOne 784900 plate for 1 μM final concentration; • 5 μL of 1×assay buffer was dispensed to columns 24 (low control) and 5 μL 2×human kallikrein enzyme solution was dispensed to columns 1-23 (column 23 high control); • the plate was centrifuged with a “cover” plate at 500 rpm for 1 min • the plate was pre-incubated for 30 minutes at room temperature with plate covered; • 5 μL of 2×Z-Gly-Pro-Arg-AMC peptide substrate was dispensed into the entire plate, columns 1-24; • the plate was centrifuged with a “cover” plate at 500 rpm for 1 min; • the plate was read monitoring fluorescence intensity on the BMG PHERAStar at room temperature, using fluorescence module 340 nm/440 nm.
(§1) Percent inhibition (IC50) curves were generated per compound tested, and data was analyzed using a 4-parameter logistic fit using GeneData Screener. The relative fluorescence unit (RFU) values were normalized to percent inhibition using the following equation:
% inhibition=((HC-LC)−(compound-LC)\(HC-LC))*100 where LC—low control=mean signal of human kallikrein enzyme or 100% inhibition of human kallikrein enzyme; HC—high control=mean signal of Factor XIa+Z-Gly-Pro-Arg-AMC peptide substrate with DMSO only.
(§2) An 11-point dose response curve for the test compound(s) was generated using GENDATA to determine IC50 value based on the following equation:
Y=Bottom+(Top-Bottom)/(1+10^((logIC50−X)*HillSlope)) where Y is the % inhibition in the presence of X inhibitor concentration, Top=high control=mean signal of human kallikrein enzyme+Z-Gly-Pro-Arg-AMC peptide substrate with DMSO only; Bottom=low control−mean signal of no human kallikrein enzyme or 100% inhibition of human kallikrein enzyme; HillSlope—Hill coefficient; and IC50=concentration of compound with 50% inhibition in relation to top/high control.

For a further experiment, the target named is Factor XIa (Homo sapiens (Human), UniProt P03951). The experiment can be described thus: Factor XIa inhibition assay (FLINT) utilizing a fluorophore-quencher pair peptide substrate. It counts as biochemical. The note with it: 30 min preincubation, kinetic reads over 30 min, read-out: FXIa Kin Inh IC50.
Chain of Factor XIa (P03951 388-625): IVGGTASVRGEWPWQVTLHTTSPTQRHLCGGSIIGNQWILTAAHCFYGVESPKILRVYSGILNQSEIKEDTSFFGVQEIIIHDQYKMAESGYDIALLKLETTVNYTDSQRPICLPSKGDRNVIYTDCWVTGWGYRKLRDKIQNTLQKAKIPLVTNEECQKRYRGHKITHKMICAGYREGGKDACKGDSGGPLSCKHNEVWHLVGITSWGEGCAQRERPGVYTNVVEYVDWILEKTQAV
Chain of Factor XIa (P03951 19-387 partner): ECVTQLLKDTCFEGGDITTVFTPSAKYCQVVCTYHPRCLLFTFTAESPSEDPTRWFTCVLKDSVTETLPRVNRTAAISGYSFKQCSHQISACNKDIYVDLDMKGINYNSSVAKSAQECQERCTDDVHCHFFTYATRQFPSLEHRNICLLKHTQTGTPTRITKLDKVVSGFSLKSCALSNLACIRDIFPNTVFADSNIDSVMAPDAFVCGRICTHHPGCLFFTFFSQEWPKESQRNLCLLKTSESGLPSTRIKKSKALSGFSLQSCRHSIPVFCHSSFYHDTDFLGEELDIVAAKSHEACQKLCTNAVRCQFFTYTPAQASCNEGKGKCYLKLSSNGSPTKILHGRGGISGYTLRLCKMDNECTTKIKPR
Text: Biological Example 1: Factor XIa Inhibition Assay Utilizing a Fluorophore-Quencher Pair Peptide Substrate
A fluorescence intensity (FLINT) based assay was used to monitor inhibition of Factor XIa. The peptide substrate, 5Fam-[…]-K5Tamra (purchased from New England Peptide) was chosen based on the FXI sequence. Conversion of zymogen […]. The custom peptide used in this assay was based on the Arg146 cleavage site of FXI. The peptide substrate was designed with a fluorophore-quencher pair, where the fluorescence is quenched until FXIa cleaves the 8-mer peptide after the Arg residue.
The Factor XIa FLINT assay was used with the following 5Fam-[…]-K5Tamra assay buffer: 50 mM Tris, pH 7.5, 100 mM NaCl, 5 mM CaCl2), 0.1 mg/mL BSA, 0.03% CHAPS. Assay buffer was prepared by mixing all ingredients fresh. 5Fam-[…]-K5Tamra peptide substrate was first prepared at 10 mM in 100% DMSO, then diluted to 3 mM in 100% DMSO. Assay buffer was then added directly to the 3 mM stock of substrate to prepare the 30 μM 2× working concentration (15 μM final concentration). The 2×Factor XIa stock solution was prepared by diluting 6.562 μM stock in 1×assay buffer for a 200 μM working stock solution (100 μM final concentration).
Test compound(s) were run in an 11-point, 3-fold serial dilution with a final top compound concentration of 100 nM. Final DMSO in assay was 2%. FXIa was preincubated with compound for 30-minutes and then substrate was added to initiate the reaction. The assay was run with kinetic (KIN) reads at 5 min intervals over 30 minutes. The time course was linear using 100 μM FXIa greater than 30 minutes. More specifically, the assay was run as follows: • 100 nL of 0.01 mM test compound was dispensed into black 384 well non-binding Greiner BioOne 784900 plate for 0.1 μM final concentration; • 5 μL of 1×assay buffer was dispensed to column 24 (low control) and 5 μL 2×Factor XIa solution was dispensed to columns 1-23 (column 23 high control); • the plate was centrifuged with a “cover” plate at 500 rpm for 1 min • the plate was pre-incubated for 30 minutes at room temperature with plate covered; • 5 μL of 2×5Fam-[…]-K5Tamra peptide substrate was dispensed into the entire plate, columns 1-24; • the plate was centrifuged with a “cover” plate at 500 rpm for 1 min; • the plate was read monitoring fluorescence intensity on the BMG PHERAStar at room temperature, using fluorescence module 485 nm/520 nm.
as §1
% inhibition=((HC-LC)−(compound−LC)/(HC-LC))*100
where LC—low control=mean signal of no Factor XIa or 100% inhibition of Factor XIa; HC—high control=mean signal of Factor XIa+5Fam-[…]-K5Tamra peptide substrate with DMSO only.
as §2
Y=Bottom+(Top-Bottom)/(1+10^((logIC50-X)*HillSlope))
where Y is the % inhibition in the presence of X inhibitor concentration, Top=high control=mean signal of Factor XIa+5Fam-[…] K5Tamra peptide substrate with DMSO only; Bottom=low control−mean signal of no Factor XIa or 100% inhibition of Factor XIa; HillSlope—Hill coefficient; and IC50=concentration of compound with 50% inhibition in relation to top/high control.
Representative compounds of the present invention were tested according to the procedure described in Biological Example 1 and Biological Example 2 above, with results as listed in Table 3, below.

The mark [1] stands for this setting: 5Fam-[…]-K5Tamra substrate 15 μM.

Chain of human plasma kallikrein (P03952 391-638): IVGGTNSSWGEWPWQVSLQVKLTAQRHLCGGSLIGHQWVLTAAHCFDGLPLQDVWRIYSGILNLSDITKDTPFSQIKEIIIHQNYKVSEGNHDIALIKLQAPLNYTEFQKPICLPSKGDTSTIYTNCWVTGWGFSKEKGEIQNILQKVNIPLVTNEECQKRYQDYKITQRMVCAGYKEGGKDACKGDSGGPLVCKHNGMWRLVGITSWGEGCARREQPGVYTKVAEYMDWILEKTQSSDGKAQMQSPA
Chain of human plasma kallikrein (P03952 20-390 partner): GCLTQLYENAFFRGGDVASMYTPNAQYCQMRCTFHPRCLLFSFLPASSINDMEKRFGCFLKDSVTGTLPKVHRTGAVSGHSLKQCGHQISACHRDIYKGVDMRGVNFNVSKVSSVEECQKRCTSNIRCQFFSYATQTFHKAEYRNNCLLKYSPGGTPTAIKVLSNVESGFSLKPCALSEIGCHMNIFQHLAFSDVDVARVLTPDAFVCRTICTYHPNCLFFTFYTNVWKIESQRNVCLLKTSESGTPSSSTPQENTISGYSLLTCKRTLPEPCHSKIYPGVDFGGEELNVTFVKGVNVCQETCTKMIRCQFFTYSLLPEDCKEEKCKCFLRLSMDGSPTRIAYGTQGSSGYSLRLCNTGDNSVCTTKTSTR

Turning to `C[C@@H](C#N)c1nccc(-c2cnc([C@@H]3CCC4CC(c5c(-n6cnnn6)ccc(Cl)c5F)=CC(=O)N43)[nH]2)c1F` (relative stereo) [Example 164, (2*R)-2-(4-(2-((3S)-7-(3-chloro-2-fluoro-6-(1H-tetrazol-1-yl)phenyl)-5-oxo-1,2,3,5,8,8a-hexahydroindolizin-3-yl)-1H-imidazol-5-yl)-3-fluoropyridin-2-yl)propanenitrile], the results for the IC50 at human plasma kallikrein and at Factor XIa (5Fam-KLTRAETV-K5Tamra substrate 15 μM) were 16.6 nM and 4.3 nM, respectively.
For the compound `O=C1C=C(c2c(-n3cnnn3)ccc(Cl)c2F)C[C@@H]2CC[C@@H](c3ncc(-c4ccnc([C@H](O)C(F)(F)F)c4)[nH]3)N12` (relative stereo) [Example 174, (3S*,8aS*)-7-(3-chloro-2-fluoro-6-(1H-tetrazol-1-yl)phenyl)-3-(5-(2-((S*)-2,2,2-trifluoro-1-hydroxyethyl)pyridin-4-yl)-1H-imidazol-2-yl)-2,3,8,8a-tetrahydroindolizin-5(1H)-one], the half-maximal inhibitory concentration (IC50) at human plasma kallikrein stood at 25.9 nM; at Factor XIa (setting [1]), 18.1 nM.
The corresponding values for `O=C1C=C(c2c(-n3cnnn3)ccc(Cl)c2F)C[C@H]2CC[C@@H](c3ncc(-c4ccnc([C@@H](O)C(F)(F)F)c4)[nH]3)N12` (relative stereo) [Example 175, (3S*,8 aR*)-7-(3-chloro-2-fluoro-6-(1H-tetrazol-1-yl)phenyl)-3-(5-(2-((R*)-2,2,2-trifluoro-1-hydroxyethyl)pyridin-4-yl)-1H-imidazol-2-yl)-2,3,8,8a-tetrahydroindolizin-5(1H)-one] are 30.3 nM and 9.5 nM.
Turning to `NC(=O)c1ccc(-c2cnc([C@@H]3CC[C@@H]4CC(c5c(-n6cnnn6)ccc(Cl)c5F)=CC(=O)N43)[nH]2)s1` (relative stereo) [Example 238, 5-(2-((3*S,8aR)-7-(3-Chloro-2-fluoro-6-(1H-tetrazol-1-yl)phenyl)-5-oxo-1,2,3,5,8,8a-hexahydroindolizin-3-yl)-1H-imidazol-5-yl)thiophene-2-carboxamide], the IC50 was determined as 0.7 nM on human plasma kallikrein and 0.2 nM at Factor XIa (setting [1]).
Take `O=C(Nc1cnccc1-c1c[nH]c([C@@H]2CC[C@@H]3CC(c4c(-n5cnnn5)ccc(Cl)c4F)=CC(=O)N32)n1)C1CC1` (relative stereo) [Example 249, N-(4-(2-((3S,8a*R)-7-(3-Chloro-2-fluoro-6-(1H-tetrazol-1-yl)phenyl)-5-oxo-1,2,3,5,8,8a-hexahydroindolizin-3-yl)-1H-imidazol-4-yl)pyridin-3-yl)cyclopropanecarboxamide]: the concentration for half-maximal inhibition (IC50) at human plasma kallikrein is 0.4 nM; at Factor XIa (setting [1]), 0.2 nM.
`O=C(Nc1cnccc1-c1c[nH]c([C@@H]2CC[C@H]3CC(c4c(-n5cnnn5)ccc(Cl)c4F)=CC(=O)N32)n1)C1CC1` (relative stereo) [Example 250, N-(4-(24(3S,8aS*)-7-(3-choro-2-fluoro-6-(1H-tetrazol-1-yl)phenyl)-5-oxo-1,2,3,5,8,8a-hexahydroindolizin-3-yl)-1H-imidazol-4-yl)pyridin-3-yl)cyclopropanecarboxamide]: the 50% inhibitory concentration (IC50) on human plasma kallikrein amounted to 0.7 nM; on Factor XIa (setting [1]), 0.2 nM.
Take `O=C1Nc2ccc(-c3cnc([C@@H]4CC[C@@H]5CC(c6c(-n7cnnn7)ccc(Cl)c6F)=CC(=O)N54)[nH]3)cc2CO1` (relative stereo) [Example 277, 6-(2-((3S,8aR)-7-(3-Chloro-2-fluoro-6-(1H-tetrazol-1-yl)phenyl)-5-oxo-1,2,3,5,8,8a-hexahydroindolizin-3-yl)-1H-imidazol-5-yl)-1,4-dihydro-2H-benzo[d][1,3]oxazin-2-one]: the IC50 was found to be 1.1 nM at human plasma kallikrein and 0.2 nM at Factor XIa (setting [1]).
Regarding `O=C1Nc2ccc(-c3cnc([C@@H]4CC[C@H]5CC(c6c(-n7cnnn7)ccc(Cl)c6F)=CC(=O)N54)[nH]3)cc2CO1` (relative stereo) [Example 278], the values for the IC50 at human plasma kallikrein and on Factor XIa (setting [1]) were 1.9 nM and 0.5 nM, respectively.
As to `O=C1CCc2cc(-c3cnc([C@@H]4CC[C@H]5CC(c6c(-n7cnnn7)ccc(Cl)c6F)=CC(=O)N54)[nH]3)ccc2N1` (relative stereo) [Example 280, 6-(2-((3S,8aS)-7-(3-Chloro-2-fluoro-6-(1H-tetrazol-1-yl)phenyl)-5-oxo-1,2,3,5,8,8a-hexahydroindolizin-3-yl)-1H-imidazol-5-yl)-3,4-dihydroquinolin-2(1H)-one], the IC50 at human plasma kallikrein worked out at 1.2 nM; on Factor XIa (setting [1]), 0.6 nM.
With `O=C1CCc2cc(-c3cnc([C@@H]4CC[C@@H]5CC(c6c(-n7cnnn7)ccc(Cl)c6F)=CC(=O)N54)[nH]3)ccc2N1` (relative stereo) [Example 281, 6-(2-((3S,8aR)-7-(3-Chloro-2-fluoro-6-(1H-tetrazol-1-yl)phenyl)-5-oxo-1,2,3,5,8,8a-hexahydroindolizin-3-yl)-1H-imidazol-5-yl)-3,4-dihydroquinolin-2(1H)-one], the IC50 on human plasma kallikrein amounted to 0.8 nM; at Factor XIa (setting [1]) it was 0.3 nM.
Consider `CNc1ccc(-c2cnc([C@@H]3CC[C@@H]4CC(c5c(-n6cnnn6)ccc(Cl)c5F)=CC(=O)N43)[nH]2)c(F)n1` (relative stereo) [Example 282, (3S,8aR)-7-(3-Chloro-2-fluoro-6-(1H-tetrazol-1-yl)phenyl)-3-(5-(2-fluoro-6-(methylamino)pyridin-3-yl)-1H-imidazol-2-yl)-2,3,8,8a-tetrahydroindolizin-5(1H)-one], for which the IC50 came to 9 nM at human plasma kallikrein and 1.2 nM at Factor XIa (setting [1]).
